Source: article PMC7402526, “An in vitro quantitative systems pharmacology approach for deconvolving mechanisms of drug-induced, multilineage cytopenias” (PLoS Computational Biology, 2020)
“Also recorded” adds a separate entry of the source.

Columns and labels:
[1] = test system: lymphocyte progenitors (LymP); experiment: MLTA, LymP: concentration-response and QSP model fit; format: cell-based, human; details: Homo sapiens, Lymphocyte, 144 h
Outline: (§1)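 Drug was added at time 0 to thawed human bone marrow CD34+ cells in SFEM II plus a cytokine cocktail. After 6 days at 37°C, subsets were counted by surface-marker flow with TruCount beads. Vehicle-normalized, donor-pooled data then fed an Emax model separating anti-proliferative from cell-killing effects.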

[2] = test system: human bone marrow-derived CD34+ cells differentiated into multiple hematopoietic lineages; experiment: MLTA, overall effects across hematopoietic lineages; format: cell-based
Outline: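 Thawed primary human bone marrow CD34+ cells grown in SFEM II with a multi-lineage cytokine cocktail, drug added day 0, 6 days at 37°C, 5% CO2. Subsets counted by 17-parameter flow cytometry with TruCount beads, normalized to six vehicle wells per donor (2–7 donors); Emax model fitted per cell type.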

[3] = test system: granulocyte-macrophage progenitor (GMPs); experiment: MLTA, GMPs: concentration-response and QSP model fit; format: cell-based, human; details: Homo sapiens, 144 h, 6 days, normalized to vehicle control, read-out: GMPs normalized cell count
Outline: as §1

[4] = test system: MK cells (MK-lin); experiment: MLTA, MK: concentration-response and QSP model fit; format: cell-based, human; details: Homo sapiens, 144 h
Outline: as §1

[5] = test system: total viable cells (totalViableCells); experiment: MLTA, total live cells concentration-response; format: cell-based; details: Homo sapiens, 144 h, 6 days, normalized to vehicle control, read-out: total_live normalized cell count
Outline: (§2)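 Freeze-thawed primary human bone marrow CD34+ cells in SFEM II with cytokine cocktail, drug added day 0, 6 days at 37°C, 5% CO2. Live/dead counts by 17-parameter flow cytometry with DAPI exclusion, bead-normalized, volume-corrected to cells/mL. Normalized per donor to mean of six vehicle wells; 2–7 donors pooled.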

[6] = test system: late erythroid cells (Eryth II); experiment: MLTA, ErythII: concentration-response and QSP model fit; format: cell-based, human; details: Homo sapiens, 144 h
Outline: as §1

[7] = test system: granulocytes (Gran-lin); experiment: MLTA, Gran: concentration-response and QSP model fit; format: cell-based, human; details: Homo sapiens, 144 h
Outline: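 Freeze-thawed primary human bone marrow CD34+ cells were cultured 6 days in SFEM II with a cytokine cocktail, drug added on day 0. Subsets were counted by 17-parameter flow cytometry with TruCount beads and normalized to vehicle wells. An Emax QSP model (Emax 0–2, L1 regularization) was fitted to these counts.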

[8] = test system: multi-potent progenitors (MPPs); experiment: MLTA, MPPs: concentration-response and QSP model fit; format: cell-based, human; details: Homo sapiens, 144 h
Outline: as §1

[9] = test system: total dead cells (totalDeadCells); experiment: MLTA, total dead cells concentration-response; format: cell-based; details: Homo sapiens, 144 h, 6 days, normalized to vehicle control, read-out: total_dead normalized cell count
Outline: as §2

O=C1CCC(N2C(=O)c3ccccc3C2=O)C(=O)N1 (stereo not drawn) [thalidomide]
activity at 0.0002 µM ([1]; dose 0.2 nM, 6 days, normalized to vehicle control, read-out: LymP normalized cell count): 109% | activity at 0.001 µM ([1]; dose 1 nM, 6 days, normalized to vehicle control, read-out: LymP normalized cell count): 105% | activity at 0.005 µM ([1]; dose 5 nM, 6 days, normalized to vehicle control, read-out: LymP normalized cell count): 123% | activity at 0.025 µM ([1]; dose 25 nM, 6 days, normalized to vehicle control, read-out: LymP normalized cell count): 126% | activity at 0.1 µM ([1]; dose 100 nM, 6 days, normalized to vehicle control, read-out: LymP normalized cell count): 94.6% | activity at 0.5 µM ([1]; dose 500 nM, 6 days, normalized to vehicle control, read-out: LymP normalized cell count): 76.6% | activity at 2.5 µM ([1]; dose 2500 nM, 6 days, normalized to vehicle control, read-out: LymP normalized cell count): 139% | Emax ([1]; parameter from QSP model fitting, read-out: Emax_drug_LymP): 0.0064% | effect on hematopoietic cell numbers across cell types ([2]; 0.2-2500 nM, 6 days, relative to vehicle control): least effect on hematopoietic cell types across doses; also recorded: did not drastically decrease cell types | EmaxT effects across cell types (overall statement) ([2]; QSP model fit, EmaxT > 1.0 = cell-killing): ≤ 0.1 | activity at 0.0002 µM ([3]; dose 0.2 nM): 92.4% | activity at 0.001 µM ([3]; dose 1 nM): 107% | activity at 0.005 µM ([3]; dose 5 nM): 100% | activity at 0.025 µM ([3]; dose 25 nM): 112% | activity at 0.1 µM ([3]; dose 100 nM): 97% | activity at 0.5 µM ([3]; dose 500 nM): 104% | activity at 2.5 µM ([3]; dose 2500 nM): 99% | activity at 0.0002 µM ([4]; dose 0.2 nM, 6 days, normalized to vehicle control, read-out: MK normalized cell count): 97.8% | activity at 0.001 µM ([4]; dose 1 nM, 6 days, normalized to vehicle control, read-out: MK normalized cell count): 103% | activity at 0.005 µM ([4]; dose 5 nM, 6 days, normalized to vehicle control, read-out: MK normalized cell count): 118% | activity at 0.025 µM ([4]; dose 25 nM, 6 days, normalized to vehicle control, read-out: MK normalized cell count): 114% | activity at 0.1 µM ([4]; dose 100 nM, 6 days, normalized to vehicle control, read-out: MK normalized cell count): 101% | activity at 0.5 µM ([4]; dose 500 nM, 6 days, normalized to vehicle control, read-out: MK normalized cell count): 88.1% | activity at 2.5 µM ([4]; dose 2500 nM, 6 days, normalized to vehicle control, read-out: MK normalized cell count): 105% | Emax ([4]; parameter from QSP model fitting, read-out: Emax_drug_MK): 0.00388% | viability at 0.0002 µM ([5]; dose 0.2 nM): 90.8% | viability at 0.001 µM ([5]; dose 1 nM): 99.8% | viability at 0.005 µM ([5]; dose 5 nM): 108% | viability at 0.025 µM ([5]; dose 25 nM): 116% | viability at 0.1 µM ([5]; dose 100 nM): 93.1% | viability at 0.5 µM ([5]; dose 500 nM): 91.7% | viability at 2.5 µM ([5]; dose 2500 nM): 104% | activity at 0.0002 µM ([6]; dose 0.2 nM, 6 days, normalized to vehicle control, read-out: ErythII normalized cell count): 94.3% | activity at 0.001 µM ([6]; dose 1 nM, 6 days, normalized to vehicle control, read-out: ErythII normalized cell count): 99.8% | activity at 0.005 µM ([6]; dose 5 nM, 6 days, normalized to vehicle control, read-out: ErythII normalized cell count): 105% | activity at 0.025 µM ([6]; dose 25 nM, 6 days, normalized to vehicle control, read-out: ErythII normalized cell count): 111% | activity at 0.1 µM ([6]; dose 100 nM, 6 days, normalized to vehicle control, read-out: ErythII normalized cell count): 77.8% | activity at 0.5 µM ([6]; dose 500 nM, 6 days, normalized to vehicle control, read-out: ErythII normalized cell count): 87.5% | activity at 2.5 µM ([6]; dose 2500 nM, 6 days, normalized to vehicle control, read-out: ErythII normalized cell count): 93.7% | Emax ([6]; parameter from QSP model fitting, read-out: Emax_drug_ErythroidII): 0.00351% | activity at 0.0002 µM ([7]; dose 0.2 nM, 6 days, normalized to vehicle control, read-out: Gran normalized cell count): 85% | activity at 0.001 µM ([7]; dose 1 nM, 6 days, normalized to vehicle control, read-out: Gran normalized cell count): 100% | activity at 0.005 µM ([7]; dose 5 nM, 6 days, normalized to vehicle control, read-out: Gran normalized cell count): 110% | activity at 0.025 µM ([7]; dose 25 nM, 6 days, normalized to vehicle control, read-out: Gran normalized cell count): 126% | activity at 0.1 µM ([7]; dose 100 nM, 6 days, normalized to vehicle control, read-out: Gran normalized cell count): 94.9% | activity at 0.5 µM ([7]; dose 500 nM, 6 days, normalized to vehicle control, read-out: Gran normalized cell count): 92.7% | activity at 2.5 µM ([7]; dose 2500 nM, 6 days, normalized to vehicle control, read-out: Gran normalized cell count): 102% | Emax ([7]; parameter from QSP model fitting, read-out: Emax_drug_Gran): 0.01% | activity at 0.0002 µM ([8]; dose 0.2 nM, 6 days, normalized to vehicle control, read-out: MPPs normalized cell count): 91.8% | activity at 0.001 µM ([8]; dose 1 nM, 6 days, normalized to vehicle control, read-out: MPPs normalized cell count): 75.9% | activity at 0.005 µM ([8]; dose 5 nM, 6 days, normalized to vehicle control, read-out: MPPs normalized cell count): 79% | activity at 0.025 µM ([8]; dose 25 nM, 6 days, normalized to vehicle control, read-out: MPPs normalized cell count): 87.5% | activity at 0.1 µM ([8]; dose 100 nM, 6 days, normalized to vehicle control, read-out: MPPs normalized cell count): 76.7% | activity at 0.5 µM ([8]; dose 500 nM, 6 days, normalized to vehicle control, read-out: MPPs normalized cell count): 78.1% | activity at 2.5 µM ([8]; dose 2500 nM, 6 days, normalized to vehicle control, read-out: MPPs normalized cell count): 91.5% | Emax ([8]; parameter from QSP model fitting, read-out: Emax_drug_MPP): 0.00111% | activity at 0.0002 µM ([9]; dose 0.2 nM): 91.6% | activity at 0.001 µM ([9]; dose 1 nM): 109% | activity at 0.005 µM ([9]; dose 5 nM): 96.3% | activity at 0.025 µM ([9]; dose 25 nM): 120% | activity at 0.1 µM ([9]; dose 100 nM): 113% | activity at 0.5 µM ([9]; dose 500 nM): 105% | activity at 2.5 µM ([9]; dose 2500 nM): 99.8%
